Activity calls are given as the source filed them.
Columns and labels:
[1] = mitochondrial function rescue without frataxin homolog – Friedreich's ataxia, plus single-dose screen, dose response (AID 1465); type: functional;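 further: yeast depleted of Yfh1p frataxin homolog grown on glycerol needing respiration; WST-1 tetrazolium dye reduction as measure of cellular dehydrogenase metabolic activity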
[2] = target: 26S proteasome non-ATPase regulatory subunit 14 (Homo sapiens, UniProt O00487); assay: inhibition of proteasome subunit RPN11 – biochemical, fluorescence polarization, uHTS hits, confirmation (AID 602368); type: functional
[3] = target: 72 kDa type IV collagenase (Homo sapiens, UniProt P08253); assay: Dose Response validation of uHTS RPN11 inhibitor hits using a MMP-2 Fluorescence assay.; type: functional
[4] = target: Prothrombin (Bos taurus, UniProt P00735); assay: thrombin protease inhibitors – biochemical, fluorescence polarization, uHTS hits, dose response (AID 602369); type: functional
[5] = target: Mucolipin-3 (Homo sapiens, UniProt Q8TDD5); assay: Dose response cell-based high-throughput screening assay for agonists of the transient receptor potential channel ML3 (TRPML3). [Related pubchem assays: 1526, 1424, 1448 ]; type: functional
[6] = target: Ion channel NompC (Danio rerio, UniProt Q7T1G6); assay: Fluorescence counterscreen assay for TRPML3 agonists: dose response cell-based high-throughput screening assay to identify agonists of the transient receptor potential channel N1 (TRPN1). [Related pubchem assays: 1526, 1424, 1448 ]; type: functional
[7] = blockers of HIV-1 envelope-mediated cell-cell fusion – cherry-pick, dose response (AID 652057); type: functional, cell-based
[8] = blockers of HIV-1 ZM109 envelope-driven cell-cell fusion – HeLa effector, CEM target cells, luciferase, cherry-pick, dose response (AID 652058); type: functional, cell-based;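 further: luciferase signal from HIV-1 Env mediated cell-cell fusion of effector and target cells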
[9] = off-target signal loss in HeLa-CEM21 co-culture – HeLa F-luc CTL cells, cherry-picked, counter-screen for HIV-1 Env fusion inhibitor project, dose response (AID 652040); type: functional, cell-based;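 further: potency for signal decrease marking cytotoxic or nonspecific inhibition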
[10] = HIV-1 AD8 envelope cell-cell fusion blockers – cherry-pick, dose response (AID 652062); type: functional, cell-based;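 further: luciferase signal from cell-cell fusion driven by HIV-1 clade B AD8 Env; potency is for inhibitors of fusion seen as a drop in luminescence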
[11] = viability of uninfected HEp-2 cells – cell-based, HTS, cytotoxicity control for RSV inhibitor project, dose response (AID 2410); type: functional; conditions: human respiratory syncytial virus
[12] = cells
[13] = target: Peroxisome proliferator-activated receptor gamma/Nuclear receptor coactivator 2 (Homo sapiens, UniProt P37231); type: functional;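 further: agonist potency for raising coactivator recruitment to the receptor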
[14] = target: G-protein coupled receptor 35 (Homo sapiens, UniProt Q9HC97); assay: inhibition of zaprinast-stimulated GPR35 beta-arrestin translocation – imaging, U2OS, beta-arrestin-GFP, zaprinast agonist, primary screen (AID 2058); type: functional;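 further: antagonist potency meaning inhibition of agonist-induced arrestin redistribution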
[15] = target: Peroxisome proliferator-activated receptor gamma/Nuclear receptor coactivator 1 (Homo sapiens, UniProt P37231); type: functional;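 further: agonist potency as compounds enhance coactivator SRC-1 recruitment to PPARgamma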
[16] = test system: Streptococcus sp. 'group A'; assay: Streptococcus pyogenes SK(-)GAS viability under kanamycin – luminescence, BacTiterGlo, confirmation, counter-screen for streptokinase expression inhibitor project, dose response (AID 1900); type: functional, organism-based
[17] = target: Peroxisome proliferator-activated receptor gamma/Nuclear receptor coactivator 3 (Homo sapiens, UniProt P37231); type: functional;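 further: agonist potency for raising coactivator recruitment to the receptor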
[18] = target: T1, Streptokinase A (Streptococcus pyogenes serotype M1, UniProt P10520); assay: viability-normalized secreted streptokinase activity reduction – plasminogen activation absorbance, OD405, dose response (AID 1914); type: functional, Streptococcus pyogenes M1 GAS;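 further: secreted streptokinase activity via plasminogen activation per viability signal from cell pellet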
T1 sequence (P10520 whole entry): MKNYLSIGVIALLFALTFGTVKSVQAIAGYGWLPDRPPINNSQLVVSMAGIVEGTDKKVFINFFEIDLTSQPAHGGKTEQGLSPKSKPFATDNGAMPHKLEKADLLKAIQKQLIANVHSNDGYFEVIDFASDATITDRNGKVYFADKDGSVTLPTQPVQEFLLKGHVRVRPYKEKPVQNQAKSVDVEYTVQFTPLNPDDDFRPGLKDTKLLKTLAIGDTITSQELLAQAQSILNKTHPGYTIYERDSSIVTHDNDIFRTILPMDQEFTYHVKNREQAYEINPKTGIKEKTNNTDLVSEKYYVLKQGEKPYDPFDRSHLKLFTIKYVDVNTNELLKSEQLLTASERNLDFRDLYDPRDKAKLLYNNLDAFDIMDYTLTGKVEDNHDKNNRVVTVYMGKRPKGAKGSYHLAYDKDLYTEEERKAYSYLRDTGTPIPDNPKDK

[19] = Trypanosoma cruzi growth suppression in host cells – NIH3T3 host cells, beta-gal luminescence, confirmation (AID 2044); type: functional, cell-based;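 further: intracellular parasites grown in NIH/3T3 mouse fibroblasts as host cells; luminescent beta-galactosidase reporter signal from transgenic T. cruzi replicating inside host cells; inhibitors lower the luminescence signal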
[20] = NIH3T3 cell viability loss – ATP luminescence, mouse fibroblasts, counter-screen, dose response (AID 2010); type: functional, cell-based;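 further: cells exposed to compound for about 90 hours before reading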
[21] = test system: Streptococcus; assay: GAS UMAA2166 growth inhibition – luminescence, BacTiterGlo, counter-screen for streptokinase expression inhibitor project, dose response (AID 1915); type: functional, organism-based;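 further: potency for reduction of bacterial viability or growth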
[22] = target: Voltage-dependent T-type calcium channel subunit alpha-1H (Homo sapiens, UniProt O95180); type: functional;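 further: channel activity triggered by adding a high calcium stimulation buffer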
Chain of Voltage-dependent T-type calcium channel subunit alpha-1H (O95180 whole entry): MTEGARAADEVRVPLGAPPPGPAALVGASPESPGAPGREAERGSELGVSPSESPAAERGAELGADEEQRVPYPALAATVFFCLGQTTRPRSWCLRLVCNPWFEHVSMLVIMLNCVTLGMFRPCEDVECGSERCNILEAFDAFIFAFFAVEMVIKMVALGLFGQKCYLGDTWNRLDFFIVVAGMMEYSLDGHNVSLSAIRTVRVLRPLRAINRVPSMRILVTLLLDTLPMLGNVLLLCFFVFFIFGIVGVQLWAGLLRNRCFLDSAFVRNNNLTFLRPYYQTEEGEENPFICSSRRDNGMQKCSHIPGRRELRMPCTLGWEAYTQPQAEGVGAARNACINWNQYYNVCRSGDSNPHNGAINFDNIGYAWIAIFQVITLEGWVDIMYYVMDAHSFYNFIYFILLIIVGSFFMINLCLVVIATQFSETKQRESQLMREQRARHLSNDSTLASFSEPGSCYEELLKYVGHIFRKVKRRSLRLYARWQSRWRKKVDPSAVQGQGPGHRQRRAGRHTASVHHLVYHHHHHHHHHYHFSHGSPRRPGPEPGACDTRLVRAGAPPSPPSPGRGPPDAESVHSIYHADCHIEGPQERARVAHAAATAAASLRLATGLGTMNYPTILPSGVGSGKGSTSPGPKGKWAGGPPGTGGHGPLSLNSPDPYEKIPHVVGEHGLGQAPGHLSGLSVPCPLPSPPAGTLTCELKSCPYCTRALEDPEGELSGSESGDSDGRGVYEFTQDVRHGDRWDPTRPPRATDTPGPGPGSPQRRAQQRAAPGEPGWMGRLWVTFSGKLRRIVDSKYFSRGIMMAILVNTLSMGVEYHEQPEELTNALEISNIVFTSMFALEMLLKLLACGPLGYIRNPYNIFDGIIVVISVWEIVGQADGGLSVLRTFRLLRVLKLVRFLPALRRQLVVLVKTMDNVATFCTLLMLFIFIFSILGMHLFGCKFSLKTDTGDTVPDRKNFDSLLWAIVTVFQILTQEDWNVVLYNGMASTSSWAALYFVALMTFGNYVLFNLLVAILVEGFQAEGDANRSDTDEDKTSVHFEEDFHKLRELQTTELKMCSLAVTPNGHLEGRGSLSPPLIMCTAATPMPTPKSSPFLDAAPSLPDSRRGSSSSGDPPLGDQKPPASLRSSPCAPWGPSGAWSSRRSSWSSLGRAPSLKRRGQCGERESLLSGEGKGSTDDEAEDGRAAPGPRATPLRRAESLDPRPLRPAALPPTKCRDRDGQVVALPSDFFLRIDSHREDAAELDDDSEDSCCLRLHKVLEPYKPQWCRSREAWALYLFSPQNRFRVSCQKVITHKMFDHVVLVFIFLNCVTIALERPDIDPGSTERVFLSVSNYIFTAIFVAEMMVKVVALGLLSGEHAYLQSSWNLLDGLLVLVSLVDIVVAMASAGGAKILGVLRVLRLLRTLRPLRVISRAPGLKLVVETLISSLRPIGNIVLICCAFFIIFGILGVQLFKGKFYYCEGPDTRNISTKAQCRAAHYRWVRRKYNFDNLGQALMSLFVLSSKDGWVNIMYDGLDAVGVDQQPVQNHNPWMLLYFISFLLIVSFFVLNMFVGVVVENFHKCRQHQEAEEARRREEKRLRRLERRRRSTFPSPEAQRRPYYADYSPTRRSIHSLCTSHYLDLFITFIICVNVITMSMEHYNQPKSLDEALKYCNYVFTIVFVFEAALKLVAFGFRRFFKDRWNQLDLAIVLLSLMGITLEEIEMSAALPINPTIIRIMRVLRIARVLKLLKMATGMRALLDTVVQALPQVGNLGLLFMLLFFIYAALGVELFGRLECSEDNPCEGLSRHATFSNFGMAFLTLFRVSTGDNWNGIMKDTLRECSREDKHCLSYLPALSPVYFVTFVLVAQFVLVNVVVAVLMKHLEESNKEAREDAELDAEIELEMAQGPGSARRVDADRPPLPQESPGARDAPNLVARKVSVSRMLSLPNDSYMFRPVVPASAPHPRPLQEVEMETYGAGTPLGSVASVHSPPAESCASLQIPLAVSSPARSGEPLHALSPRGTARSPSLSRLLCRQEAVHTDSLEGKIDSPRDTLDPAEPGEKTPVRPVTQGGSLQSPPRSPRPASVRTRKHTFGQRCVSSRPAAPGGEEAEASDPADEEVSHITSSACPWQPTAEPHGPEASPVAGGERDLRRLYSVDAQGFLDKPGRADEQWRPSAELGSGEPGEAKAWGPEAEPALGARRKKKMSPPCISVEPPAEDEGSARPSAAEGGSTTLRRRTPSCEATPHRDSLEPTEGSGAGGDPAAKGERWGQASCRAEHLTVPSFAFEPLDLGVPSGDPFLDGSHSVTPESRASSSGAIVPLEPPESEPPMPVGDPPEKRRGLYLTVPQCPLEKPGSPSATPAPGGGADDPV

Chain of 72 kDa type IV collagenase (P08253 whole entry): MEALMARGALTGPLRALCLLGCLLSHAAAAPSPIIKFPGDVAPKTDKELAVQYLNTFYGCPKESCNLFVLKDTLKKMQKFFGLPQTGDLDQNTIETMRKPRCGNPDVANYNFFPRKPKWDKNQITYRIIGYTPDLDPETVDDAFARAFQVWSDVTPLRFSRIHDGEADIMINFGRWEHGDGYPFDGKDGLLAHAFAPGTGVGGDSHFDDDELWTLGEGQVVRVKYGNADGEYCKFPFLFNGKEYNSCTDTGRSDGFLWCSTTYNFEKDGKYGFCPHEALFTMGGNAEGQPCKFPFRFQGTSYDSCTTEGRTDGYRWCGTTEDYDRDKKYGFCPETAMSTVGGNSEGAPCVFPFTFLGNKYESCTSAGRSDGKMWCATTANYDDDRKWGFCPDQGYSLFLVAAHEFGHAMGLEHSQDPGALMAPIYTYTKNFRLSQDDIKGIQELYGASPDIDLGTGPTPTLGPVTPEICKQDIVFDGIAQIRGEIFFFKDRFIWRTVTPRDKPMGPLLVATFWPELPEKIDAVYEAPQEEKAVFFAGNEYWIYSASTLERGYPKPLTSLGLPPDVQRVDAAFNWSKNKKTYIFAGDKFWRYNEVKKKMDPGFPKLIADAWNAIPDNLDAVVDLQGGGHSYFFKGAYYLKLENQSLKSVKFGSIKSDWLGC
Chain of Peroxisome proliferator-activated receptor gamma/Nuclear receptor coactivator 3 (P37231 whole entry): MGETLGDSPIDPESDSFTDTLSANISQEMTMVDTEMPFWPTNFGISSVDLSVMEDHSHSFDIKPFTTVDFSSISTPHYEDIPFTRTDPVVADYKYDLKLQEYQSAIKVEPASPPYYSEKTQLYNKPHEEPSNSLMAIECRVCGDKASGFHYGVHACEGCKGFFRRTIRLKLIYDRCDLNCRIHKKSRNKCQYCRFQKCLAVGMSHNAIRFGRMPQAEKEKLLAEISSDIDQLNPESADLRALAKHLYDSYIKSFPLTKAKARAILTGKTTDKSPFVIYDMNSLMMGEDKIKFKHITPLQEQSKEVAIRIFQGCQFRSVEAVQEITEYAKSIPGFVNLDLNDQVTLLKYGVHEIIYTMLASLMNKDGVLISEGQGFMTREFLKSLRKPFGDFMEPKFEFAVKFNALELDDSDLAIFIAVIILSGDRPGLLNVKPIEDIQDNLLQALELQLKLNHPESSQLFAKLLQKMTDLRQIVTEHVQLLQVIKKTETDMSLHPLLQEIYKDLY
Chain of Peroxisome proliferator-activated receptor gamma/Nuclear receptor coactivator 3 (Q9Y6Q9 whole entry, further chain): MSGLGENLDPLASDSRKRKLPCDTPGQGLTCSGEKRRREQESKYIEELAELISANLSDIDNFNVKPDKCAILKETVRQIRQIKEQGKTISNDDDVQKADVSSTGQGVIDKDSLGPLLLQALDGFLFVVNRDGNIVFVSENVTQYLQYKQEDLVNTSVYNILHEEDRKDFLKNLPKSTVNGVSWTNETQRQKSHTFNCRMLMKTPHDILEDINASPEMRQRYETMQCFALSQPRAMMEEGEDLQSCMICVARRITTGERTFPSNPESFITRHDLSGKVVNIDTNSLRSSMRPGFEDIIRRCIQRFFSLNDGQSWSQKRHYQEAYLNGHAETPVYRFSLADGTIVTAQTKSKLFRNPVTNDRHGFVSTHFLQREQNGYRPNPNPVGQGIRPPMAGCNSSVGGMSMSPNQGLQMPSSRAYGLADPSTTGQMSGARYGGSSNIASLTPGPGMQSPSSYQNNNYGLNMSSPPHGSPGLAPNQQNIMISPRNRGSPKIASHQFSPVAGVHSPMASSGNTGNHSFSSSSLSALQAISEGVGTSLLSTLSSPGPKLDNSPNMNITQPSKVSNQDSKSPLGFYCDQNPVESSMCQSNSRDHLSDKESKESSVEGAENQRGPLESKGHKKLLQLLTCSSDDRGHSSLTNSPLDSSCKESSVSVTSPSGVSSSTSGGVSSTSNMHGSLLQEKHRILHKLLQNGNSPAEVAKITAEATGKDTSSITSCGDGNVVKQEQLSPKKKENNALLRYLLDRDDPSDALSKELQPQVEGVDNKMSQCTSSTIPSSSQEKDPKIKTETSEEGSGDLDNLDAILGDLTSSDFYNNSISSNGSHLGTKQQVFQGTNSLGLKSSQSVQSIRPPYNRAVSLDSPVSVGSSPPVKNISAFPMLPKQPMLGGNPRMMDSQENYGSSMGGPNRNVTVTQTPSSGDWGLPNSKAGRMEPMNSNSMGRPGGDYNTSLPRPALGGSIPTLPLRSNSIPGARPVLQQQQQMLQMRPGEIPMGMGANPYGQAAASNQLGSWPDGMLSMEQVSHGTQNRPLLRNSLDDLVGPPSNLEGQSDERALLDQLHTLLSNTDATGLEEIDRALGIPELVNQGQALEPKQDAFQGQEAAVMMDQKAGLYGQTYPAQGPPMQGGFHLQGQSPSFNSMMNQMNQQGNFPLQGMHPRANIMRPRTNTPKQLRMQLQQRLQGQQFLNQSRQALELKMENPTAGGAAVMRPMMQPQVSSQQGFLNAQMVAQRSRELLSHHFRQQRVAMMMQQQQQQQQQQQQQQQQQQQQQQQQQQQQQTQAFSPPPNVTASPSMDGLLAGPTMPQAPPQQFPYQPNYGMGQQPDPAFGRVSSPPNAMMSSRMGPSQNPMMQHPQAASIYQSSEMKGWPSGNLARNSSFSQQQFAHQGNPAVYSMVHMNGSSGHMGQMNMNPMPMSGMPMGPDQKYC

## CC(C)NC(=S)N/N=C/c1sc(N2CCCCC2)nc1-c1cccs1
[1]
  EC50: > 100 µM (active)
[2]
  IC50: 9.24 µM (active)
[3]
  IC50: 9.6 µM (active)
[4]
  IC50: 20.1 µM (active)

## Cc1cc(C)c(S(=O)(=O)N2CCCCC2)cc1N(C)S(=O)(=O)c1ccc(Cl)cc1
[5]
  EC50: 1.37 µM (active)
[6]
  EC50: > 29.9 µM (not active)
[7]
  AC50: 5.6 µM (active)
[8]
  AC50: 7.77 µM (active)
[9]
  AC50: 11.2 µM (active)
[10]
  AC50: 8.27 µM (active)

## Nc1ccc(Cc2nc3cc4ccccc4cc3[nH]2)cc1
[11]
  CC50: > 50 µM (active)
[12]
  IC50: 15.1 µM (active)

## CCCOc1cc(N(CC)CC)ccc1/C=C(/C#N)c1nc2cc(C)ccc2[nH]1
[13]
  EC50: > 79.4 µM (not active)
[14]
  IC50: 0.573 µM (active)
[15]
  EC50: > 79.4 µM (not active)
[16]
  EC50: 41.5 µM (active)
[17]
  EC50: > 79.4 µM (not active)
[18]
  EC50: 31.9 µM (active)
[19]
  EC50: 0.937 µM (active)
[20]
  EC50: > 60 µM (not active)
[21]
  EC50: > 150 µM (not active)
[22]
  EC50: 1.19 µM (active)

— ChEMBL document CHEMBL1201862, “PubChem BioAssay data set” (2004)
